Experimental data as given in patent US11369593B2 (Texas Tech University System, priority 2017, dated 2022).

What was measured:
[1] = tested on: CLN3 siRNA knock down PC12 cells; test: Protective effect in siRNA CLN3 knock down PC12 cells; type: cell-based; conditions: FIG. 3A
From the text: (§1) FIGS. 3A and 3B show the neuroprotective effect of selected compounds in phenotypic cell lines. In FIG. 3A, the protective effect is shown in siRNA CLN3 knock down PC12 cells. In FIG. 3B the protective effect is shown in wild-type (WT) and CLN3 knock down mouse fibroblasts. Values are represented as mean±SD. *P<0.05, **p<0.01, ***p<0.001 compared to vehicle control, unpaired student t test.
(§2) Protective Effect in Phenotypic Cell Lines. […] The inventors screened a number of compounds in both neuron-like CLN3 siRNA knock down PC12 cells (FIG. 3A) and CLN3 knockdown mouse fibroblasts (FIG. 3B) as phenotypic models of JNCL. […] FIGS. 3A and 3B show the neuroprotective effect of selected compounds in phenotypic cell lines. In FIG. 3A, the protective effect is shown in siRNA CLN3 knock down PC12 cells. In FIG. 3B the protective effect is shown in wild-type (WT) and CLN3 knock down mouse fibroblasts. Values are represented as mean±SD. *P<0.05, **p<0.01, ***p<0.001 compared to vehicle control, unpaired student t test. […] Selected derivatives show greater protective effect than flupirtine in patient lympoblast cells in CLN1, CLN2, CLN3, CLN6 and CLN8 disease (FIGS. 4A to 4E). FIGS. 4A to 4E show the percentage of patient lymphoblast cells (%), using Trypan Blue dye with Flupirtine (20 μM, vehicle %1 EtOH), drug 3 (20 μM, vehicle %1 EtOH), drug 5 (50 μM, vehicle %4 DMSO) or drug 6 (20 μM, vehicle %4 DMSO) at 24 h. CLN1 (FIG. 4A), CLN2 (FIG. 4B), CLN3 (FIG. 4C), CLN6 (FIG. 4D), and CLN8 (FIG. 4E).

[2] = tested on: CLN3 knockdown mouse fibroblasts; test: Protective effect in CLN3 knock down mouse fibroblasts; type: cell-based; conditions: FIG. 3B
From the text: as §1, §2

PC12 cells [3] = test: Etoposide-induced apoptosis in PC12 cells, cell viability; type: cell-based; conditions: for viability at 1 µM / viability at 3 µM / viability at 10 µM / viability at 30 µM / viability at 0.1 µM / viability at 0.3 µM: Rattus norvegicus, PC-12, etoposide-induced apoptosis; for viability at 1 µM: 1 μM compound, read-out: % Viability 1 μM; for viability at 3 µM: 3 μM compound, read-out: % Viability 3 μM; for viability at 10 µM: 10 μM compound, read-out: % Viability 10 μM; for viability at 30 µM: 30 μM compound, read-out: % Viability 30 μM; for protective activity in WT PC12 etoposide assay: WT PC12 cells; for viability at 0.1 µM: 0.1 μM compound, vehicle 52.1 ± 7.32; for viability at 0.3 µM: 0.3 μM compound
PC12 cells [4] = test: Serum starvation-induced apoptosis in PC12 cells, cell viability; type: cell-based; conditions: Rattus norvegicus, PC-12, serum starvation-induced apoptosis, PC12 cells; for viability at 1 µM: 1 μM compound, vehicle 55.04 ± 8.99, read-out: % Viability 1 μM; for viability at 3 µM: 3 μM compound, read-out: % Viability 3 μM; for viability at 10 µM: 10 μM compound, read-out: % Viability 10 μM; for viability at 30 µM: 30 μM compound, read-out: % Viability 30 μM
PC12 cells [5] = test: ROS in PC12 cells, CellROX green / DAPI staining after H2O2; type: cell-based; conditions: 400 μM H2O2 for 4 hours, FIG. 5A
Method: PC12 cells stained with CellROX and DAPI-blue nuclear stain. Greater intensity of green fluorescence indicates greater levels of ROS. Visualized through a microscope (40× magnification, bar=100 μM).
While flupirtine and retigabine are known antioxidants the inventors have shown (FIGS. 5A and 5B) that neuroprotective derivatives operate by a different mechanism of action. […] PC12 cells stained with CellROX and DAPI-blue nuclear stain. Greater intensity of green fluorescence indicates greater levels of ROS. Visualized through a microscope (40× magnification, bar=100 μM).

IMR-90-derived neurons = type: cell-based, human
From the text: The disclosed technology encompasses multiple derivatives of both flupirtine and retigabine. […] The inventors provide further insight into the derivatives from both original molecules. […] By way of explanation, and in no way a limitation of the present invention, the inventors have shown that the derivatives are active in two ways: they (1) upregulate expression of the anti-apoptotic protein Bcl-2 and ceramide pathway synthesis enzymes, and (2) activate autophagy.

primary neurons = conditions: cited from earlier work

SMILES	protective activity [1]	protective activity [2]	viability at 1 µM (PC12 cells [3]; PC12 cells)	viability at 3 µM (PC12 cells [3]; PC12 cells)	viability at 10 µM (PC12 cells [3]; PC12 cells)	viability at 30 µM (PC12 cells [3]; PC12 cells)	protective activity in WT PC12 etoposide assay (PC12 cells [3])	viability at 1 µM (PC12 cells [4])	viability at 3 µM (PC12 cells [4])	viability at 10 µM (PC12 cells [4])	viability at 30 µM (PC12 cells [4])	amelioration of reactive oxygen species (ROS) (PC12 cells [5])	concentration providing protection from etoposide-induced cell death (PC12 cells [3]; PC12 cells)	viability at 0.1 µM (PC12 cells [3]; PC12 cells)	viability at 0.3 µM (PC12 cells [3]; PC12 cells)	concentration with neuroprotective activity (as low as) (IMR-90-derived neurons; human IMR-90-derived neurons)	activity in iPSC/IMR-90-derived neurons (IMR-90-derived neurons; 15 ug/mL etoposide for 36 hours, FIG. 2)	concentration showing protective activity against Abeta 25-35 apoptotic cell death (primary neurons)
Nc1nc(NCc2ccc(F)cc2)ccc1NC(=O)OCc1ccccc1 [NK-10-1, Benzyl 6-(4-fluorobenzylamino)-2-aminopyridin-3-ylcarbamate]	greater activity than flupirtine	greater activity than flupirtine	60.1 ± 7.91%	82 ± 4.43%	66.2 ± 6.26%	57.4 ± 2.24%	greater neuroprotective activity	93.4 ± 12.4%	90.4 ± 11.2%	92.7 ± 12.8%	96.1 ± 15.3%	no amelioration of reactive oxygen species (ROS)						
C=CCOC(=O)Nc1ccc(NCc2ccc(F)cc2)nc1N [NK-12-1, Allyl 6-(4-fluorobenzylamino)-2-aminopyridin-3-ylcarbamate]	greater activity than flupirtine	greater activity than flupirtine	65.5 ± 8.19%	86.8 ± 9.05%	67.5 ± 22.6%	45.2 ± 8.92%	greater neuroprotective activity	108 ± 10.3%	88.6 ± 8.26%	82.2 ± 11.8%	92.6 ± 12.3%	no amelioration of reactive oxygen species (ROS)						
CCOC(=O)Nc1ccc(NCc2ccc(C(F)(F)F)cc2)nc1N [NK-40-3, Ethyl (2-amino-6-((4-(trifluoromethyl)benzyl)amino)pyridin-3-yl)carbamate]			82.7 ± 8.82%	71.5 ± 4.99%	97.3 ± 22.8%	106 ± 15.8%							0.1 µM	85.8 ± 11.8%	109 ± 17.3%	0.1 µM		
CCOC(=O)Nc1ccc(NCc2ccc(Cl)cc2)nc1N [NK-4-3, Ethyl (2-amino-6-((4-chlorobenzyl)amino)pyridin-3-yl)carbamate]			65.7 ± 16.2%	64.3 ± 4.28%	52.6 ± 10.3%	41.5 ± 6.14%	less active than compounds NK-10-1 and NK-12-1	78 ± 9.61%	79.3 ± 5.5%	86.5 ± 11.5%	86.6 ± 5.32%						less active	
CCOC(=O)Nc1ccc(NCc2ccc(F)cc2)nc1N [NK-1-4, Ethyl (2-amino-6-((4-fluorobenzyl)amino)pyridin-3-yl)carbamate, reference compound]	protective activity	protective activity	73.2 ± 13.9%	78.1 ± 12.9%	76.9 ± 17.4%	71.3 ± 18%		85.4 ± 14%	82 ± 14.5%	81.5 ± 13%	89.9 ± 17.1%	do ameliorate ROS		67 ± 5.88%	64.4 ± 9.35%			1 µg/mL
